Assay [1] is filed under the species Mus musculus. The assay can be described thus: Antiinflammatory activity against croton oil-induced ear inflammation in BALB/c mouse at 200 ug/ear after 6 to 24 hrs. It is filed as functional, organism-based.
Assay [2] is filed under the species Mus musculus. The assay can be described thus: Reduction in thymus weight in BALB/c mouse at 400 ug/ear. The assay is classed as functional, organism-based.
The species entered for assay [3] is Mus musculus. The assay can be described thus: Reduction in thymus weight in BALB/c mouse at 200 ug/ear. It is filed as functional. Further details: scale not given: the % may be the effect or the level left.

The text below walks through data of ChEMBL document CHEMBL1158222, “Antiinflammatory C-glucosyl chromone from Aloe barbadensis” (1996).

Calls of active or inactive are those of the source. No cut-off for these calls is given here.

`COc1cc(C)c2c(=O)cc(C[C@@H](C)O)oc2c1[C@@H]1O[C@H](CO)[C@@H](O)[C@H](O)[C@H]1OC(=O)/C=C/c1ccccc1`: the outcome in the assay filed under Mus musculus [1] was Active. The outcome in the assay filed under Mus musculus [2] was inactive.
With `C[C@]12CCC(=O)C=C1CC[C@@H]1[C@@H]2[C@@H](O)C[C@@]2(C)[C@H]1CC[C@]2(O)C(=O)CO` [HYDROCORTISONE], in the assay listed under Mus musculus [1], the result was Active. For the same molecule, the Activity in the assay listed under Mus musculus [3] is listed as 50%.
